Holding throughout (format): cell-based
One assay deals with MCF-7 cells. As to the kind of experiment: Inhibition of proliferation of MCF-7 cells (ATP method, Cell Titer-Glo). Particulars: Homo sapiens, MCF7; MCF-7 cells, 72 h. How it is done: This experiment was intended to test the inhibitory effects of the compounds disclosed herein on the proliferation of MCF-7 Cells by using the ATP method, and to evaluate the in vitro activity of the compounds according to the IC50 values.
MCF-7 cells (TCHu74, National Collection of Authenticated Cell Cultures) were seeded into a 96-well plate with an MEM (hyclone, SH30024.01B) medium containing 10% FBS (Gibco, 10099-141), 1% sodium pyruvate (sigma, 58636) and 1% non-essential amino acid (sigma, M7145) at a density of 4,000 cells/well and cultured at 37° C. with 5% CO2. 20 mM stock solutions of the compounds are prepared, serially diluted with 100% DMSO to a final concentration of 1000×, and then diluted 20-fold with a medium containing 2% FBS. After the cells were cultured for 24 h, the medium was removed. 90 μL of the medium containing 2% FBS and 10 μL of a drug were added to each well, and 10 μL of DMSO was added to the control group. The mixtures were well mixed by gentle shaking. The blank group contained only 100 μL of the medium containing 2% FBS. The cells were cultured in an incubator at 37° C. with 5% CO2 for 72 h, and then 50 μL of mixed Cell Titer-Glo (Promega, G7571) was added to each well. The mixtures were well mixed by shaking and let stand at room temperature for 10 min, and the chemiluminescence signal values were determined.
The chemiluminescence signal value was plotted against the compound concentration (in log form) using Graphpad Prism, and the IC50 values of the compounds were obtained.

Assay [1] concerns ERα Y537S mutant-expressing MCF7 cells. The experiment in a line: Inhibition of proliferation of ERα mutant-expressing MCF7 cells. Particulars: Homo sapiens, 144 h. An excerpt:
The mutant estrogen receptor α (ERα) Y537S of human ERα protein was obtained by site-directed mutagenesis in a two-primer PCR manner using the cDNA of wild-type ESR1 gene (Accession No. NM000125) as a template. The sequences of the primers used in the mutation are as follows (the underlined nucleotides are the sites of mutation): Y537S: F-AAGAACGTGGTGCCCCTCTCTGACCTGCTGCTGGAGATG (SEQ ID NO: 1); R-CATCTCCAGCAGCAGGTCAGAGAGGGGCACCACGTTCTT (SEQ ID NO: 2). The cDNA of the mutant ESR1 was cloned into the lentiviral vector of interest pCDH-CMV-MCS-EF1-Puro. The lentiviral plasmid bearing the mutant ESR1 gene sequence and the lentiviral packaging plasmid were then transfected into HEK-293T cells (ATCC, CRL-3216) by using Lipofectamine 3000 Transfection Reagent (ThermoFisher Scientific, Cat #L3000075). Forty-eight hours after transfection, the virus-bearing medium supernatant was filtered and ultracentrifuged to obtain a virus precipitate, which was then resuspended in an appropriate amount of medium. The suspension was added to MCF7 cells (ATCC, HTB-22), followed by the addition of polybrene at a final concentration of 8 μg/mL. The mixture was incubated overnight. Two days after transfection, 1 μg/mL puromycin was added to the cell culture liquid for resistance screening. About two weeks later, an MCF7 cell line capable of stably expressing the ERαY537S mutant was obtained.
The ERα mutant-expressing MCF7 cells were cultured in an MEM (GE Healthcare, SH30024.01) complete medium containing 10% fetal bovine serum. On the first day of the experiment, the cells were seeded into a 96-well plate with complete medium at a density of 3,000 cells/well to form 100 μL of cell suspension per well. The plate was incubated overnight in a cell incubator at 37° C. with 5% CO2. The following day the medium was removed, and 135 μL of an MEM incomplete medium containing 2% fetal bovine serum, and 15 μL of a test compound prepared at different concentrations with the incomplete medium were added to each well. The final concentrations of the compound were 9 concentration points obtained by 4-fold serial dilution from 100 nM. A blank control containing 0.5% DMSO was set. The plate was incubated in a cell incubator at 37° C. with 5% CO2 for 144 h. On day 8, the 96-well cell culture plate was taken out. 150 μL of CellTiter-Glo® Luminescent Cell Viability Assay (Promega, G7573) was added to each well. The plate was let stand at room temperature for 10 min, and the luminescence signal values was read using a multilabel microplate reader (PerkinElmer, VICTOR 3). The IC50 values for the inhibitory activity of the compounds were calculated according to the compound concentrations and the luminescence signal values and are shown in Table 3.

The next assay concerns the target ERα (Homo sapiens (Human), UniProt P03372). The experiment in a line: Degradation of ERα in MCF-7 cells (ELISA). Also noted: Dmax: dose or concentration left out as unconfirmed. Particulars: for Dmax at 3 µM: MCF7, read-out: Emax degradation (%); for DC50: MCF-7 cells, 16 to 18 h, read-out: EC50 (nM), degradation of ERα. The method, then:
ERα-positive breast cancer cell line MCF-7 cells were cultured in a DMEM/F12 medium (HyClone, SH30023.01) containing 10% fetal bovine serum (Corning, 35-010-CV). […] The following day the compounds were serially diluted with DMSO and further diluted with the phenol red-free DMEM/F12 medium containing 5% charcoal-stripped fetal bovine serum. 20 μL of a diluted compound was added to each well of the 48-well plate at final concentrations of 3000, 300, 30, 3, 0.3, 0.03 and 0.003 nM. The 48-well plate was placed in the incubator for 16 to 18 h. A 96-well plate was coated with the capture antibody from the human ERα/NR3A1 total protein assay kit (R&D, DYC5715-5). […] The plate was placed in an incubator at 26° C. overnight. On day 3, the antibody-coated 96-well plate was washed once with PBS, and 200 μL of PBS containing 1% BSA was added to each well. The plate was incubated in an incubator at 37° C. for 1.5 h to be blocked. The cell culture medium supernatant was discarded. The cells were washed once with PBS, and 60 μL of a cell lysis buffer was added to each well. […] The cells were lysed on ice for 15 min, and 300 μL of PBS containing 1 mM EDTA and 0.5% TritonX-100 was added to each well to dilute the urea to 1 M. The blocking buffer in the blocked 96-well plate was discarded, and 100 μL of diluted cell lysis buffer was added to each well. The plate was incubated in an incubator at 37° C. for 2 h and washed 5 times with PBS. A biotinylated assay antibody was diluted to 0.4 μg/mL with PBS containing 1% BSA, and then 100 μL of the assay antibody was added to each well. The plate was incubated in an incubator at 37° C. for 1 h. The plate was then washed five more times, and 100 μL of avidin-HRP diluted 200-fold with PBS containing 1% BSA was added to each well. The plate was incubated at 37° C. for 30 min. The plate was washed five more times, and 100 μL of TMB substrate was added to each well. The plate was incubated at room temperature until blue color appeared, and 100 μL of stop solution was added to each well. OD450 signal values were read using a PHERAstar multi-mode microplate reader. The IC50 values for the inhibitory activity of the compounds were calculated using Graphpad Prism software.

Chain of ERα (P03372 whole entry): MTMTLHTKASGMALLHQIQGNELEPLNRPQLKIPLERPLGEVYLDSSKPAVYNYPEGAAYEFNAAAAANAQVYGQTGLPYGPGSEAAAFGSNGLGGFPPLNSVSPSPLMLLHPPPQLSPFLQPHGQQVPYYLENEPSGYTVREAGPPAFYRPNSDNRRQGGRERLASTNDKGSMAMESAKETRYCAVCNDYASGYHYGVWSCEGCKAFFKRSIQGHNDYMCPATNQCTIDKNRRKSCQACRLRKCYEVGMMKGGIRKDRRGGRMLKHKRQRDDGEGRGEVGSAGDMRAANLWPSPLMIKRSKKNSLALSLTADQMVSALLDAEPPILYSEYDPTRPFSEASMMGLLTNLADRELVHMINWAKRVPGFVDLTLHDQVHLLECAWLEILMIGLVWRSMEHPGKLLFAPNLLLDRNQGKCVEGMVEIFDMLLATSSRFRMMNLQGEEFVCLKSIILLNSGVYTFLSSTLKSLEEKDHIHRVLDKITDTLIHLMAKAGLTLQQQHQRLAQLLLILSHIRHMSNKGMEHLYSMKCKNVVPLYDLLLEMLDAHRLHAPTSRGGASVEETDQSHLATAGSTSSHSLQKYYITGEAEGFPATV

For the molecule `C[C@@H]1Cc2cc3c(cc2[C@@H](c2ccc(NC4CN(CCCF)C4)cn2)N1CC(F)(F)F)OCO3` [Example 17, N-(1-(3-fluoropropyl)azetidin-3-yl)-6-((5S,7R)-7-methyl-6-(2,2,2-trifluoroethyl)-5,6,7,8-tetrahydro-[1,3]dioxolo[4,5-g]isoquinolin-5-yl)pyridin-3-amine], the IC50 in the assay on MCF-7 cells worked out at 0.44 nM. In assay [1], 2.19 nM corresponded to half-maximal inhibition (IC50). At ERα, the Dmax at 3 µM came to 104% and the DC50 worked out at 1.24 nM.

Take `C[C@@H]1Cc2cc3c(cc2[C@@H](c2c(F)cc(N[C@H]4CCN(CCCF)C4)cc2F)N1CC(F)(F)F)OCO3` [Example 2, (S)—N-(3,5-difluoro-4-((5S,7R)-7-methyl-6-(2,2,2-trifluoroethyl)-5,6,7,8-tetrahydro-[1,3]dioxolo[4,5-g]isoquinolin-5-yl)phenyl)-1-(3-fluoropropyl)pyrrolidin-3-amine]: the IC50 in the assay on MCF-7 cells was 0.17 nM. Also, in assay [1], it took 0.78 nM to reach half-maximal inhibition (IC50). On ERα, the Dmax at 3 µM was found to be 104% and the DC50 stood at 0.24 nM.

In the case of `[2H]C1([2H])Oc2cc3c(cc2O1)[C@@H](c1ccc(NC2CN(CCCF)C2)cn1)N(CC(F)(F)CO)[C@H](C)C3` [Example 13, 2,2-Difluoro-3-((5S,7R)-5-(5-((1-(3-fluoropropyl)azetidin-3-yl)amino)pyridin-2-yl)-7-methyl-7,8-dihydro-[1,3]dioxolo[4,5-g]isoquinolin-6(5H)-yl-2,2-d2)propan-1-ol], the IC50 in the assay on MCF-7 cells stood at 0.29 nM; in assay [1], 1.36 nM. Moreover, the Dmax at ERα (MCF7, read-out: Emax degradation (%)) was found to be 107%.

On to `C[C@@H]1Cc2cc3c(cc2[C@@H](c2c(F)cc(O[C@H]4CCN(CCCF)C4)cc2F)N1CC(F)(F)F)OCO3` [Example 15, (5S,7R)-5-(2,6-difluoro-4-(((S)-1-(3-fluoropropyl)pyrrolidin-3-yl)oxy)phenyl)-7-methyl-6-(2,2,2-trifluoroethyl)-5,6,7,8-tetrahydro-[1,3]dioxolo[4,5-g]isoquinoline], for which the half-maximal inhibitory concentration (IC50) with MCF-7 cells stood at 0.3 nM; in assay [1], 0.68 nM. Moreover, the Dmax at 3 µM at ERα turned out to be 95%. On ERα, the DC50 turned out to be 0.15 nM.

Take `[2H]C1([2H])Oc2cc3c(cc2O1)[C@@H](c1ccc(N[C@H]2CCN(CCCF)C2)cn1)N(CC(F)(F)CO)[C@H](C)C3` [Example 12, 2,2-Difluoro-3-((5S,7R)-5-(5-(((S)-1-(3-fluoropropyl)pyrrolidin-3-yl)amino)pyridin-2-yl)-7-methyl-7,8-dihydro-[1,3]dioxolo[4,5-g]isoquinolin-6(5H)-yl-2,2-d2)propan-1-ol]: the IC50 was 1.12 nM with MCF-7 cells and 3.49 nM in assay [1]. Besides, the Dmax at 3 µM on ERα amounted to 101%. In addition, the DC50 on ERα was 0.15 nM.

In the assay on MCF-7 cells, `C[C@@H]1Cc2cc3c(cc2[C@@H](c2ccc(N[C@H]4CCN(CCCF)C4)cn2)N1CC(F)(F)CO)OCO3` [Example 4, 2,2-Difluoro-3-((5S,7R)-5-(5-(((S)-1-(3-fluoropropyl)pyrrolidin-3-yl)amino)pyridin-2-yl)-7-methyl-7,8-dihydro-[1,3]dioxolo[4,5-g]isoquinolin-6(5H)-yl)propan-1-ol] yielded an IC50 of 0.28 nM. Besides, the IC50 in assay [1] turned out to be 0.89 nM. In addition, at ERα, the Dmax at 3 µM came out at 115% and the DC50 was determined as 0.21 nM.

`C[C@@H]1Cc2cc3c(cc2[C@@H](c2ccc(N[C@H]4CCN(CCCF)C4)cc2)N1CC(F)(F)F)OCO3` [Example 1, (S)-1-(3-fluoropropyl)-N-(4-((5R,7R)-7-methyl-6-(2,2,2-trifluoroethyl)-5,6,7,8-tetrahydro-[1,3]dioxolo[4,5-g]isoquinolin-5-yl)phenyl)pyrrolidin-3-amine]: half-maximal inhibition with MCF-7 cells (IC50) required 0.31 nM. In assay [1], half-maximal inhibition (IC50) required 1.38 nM. Moreover, on ERα, the Dmax at 3 µM was determined as 94% and the DC50 is 0.32 nM.

In the assay on MCF-7 cells, `[2H]C1([2H])Oc2cc3c(cc2O1)[C@@H](c1ccc(N[C@H]2CCN(CCCF)C2)cc1)N(CC(F)(F)CO)[C@H](C)C3` [Example 19, 2,2-Difluoro-3-((5R,7R)-5-(4-(((S)-1-(3-fluoropropyl)pyrrolidin-3-yl)amino)phenyl)-7-methyl-7,8-dihydro-[1,3]dioxolo[4,5-g]isoquinolin-6(5H)-yl-2,2-d2)propan-1-ol] yielded an IC50 of 0.07 nM. Also, in assay [1], it took 0.43 nM to reach half-maximal inhibition (IC50). For the same molecule, on ERα, the Dmax at 3 µM stood at 100% and the DC50 was determined as 0.13 nM.

Consider `C[C@@H]1Cc2cc3c(cc2[C@@H](c2c(F)cc(N[C@H]4CCN(CCCF)C4)cc2F)N1CC(F)(F)CO)OCO3` [Example 5, 3-((5S,7R)-5-(2,6-difluoro-4-(((S)-1-(3-fluoropropyl)pyrrolidin-3-yl)amino)phenyl)-7-methyl-7,8-dihydro-[1,3]dioxolo[4,5-g]isoquinolin-6(5H)-yl)-2,2-difluoro-1-propanol], for which, in the assay on MCF-7 cells, 0.03 nM corresponded to half-maximal inhibition (IC50). Further, the half-maximal inhibitory concentration (IC50) in assay [1] was determined as 0.07 nM. For the same molecule, at ERα, the Dmax at 3 µM is 108% and the DC50 came out at 0.04 nM.

In the assay on MCF-7 cells, `C[C@@H]1Cc2cc3c(cc2[C@@H](c2ncc(N[C@H]4CCN(CCCF)C4)cc2F)N1CC(F)(F)F)OCO3` [Example 9, 5-Fluoro-N—((S)-1-(3-fluoropropyl)pyrrolidin-3-yl)-6-((5S,7R)-7-methyl-6-(2,2,2-trifluoroethyl)-5,6,7,8-tetrahydro-[1,3]dioxolo[4,5-g]isoquinolin-5-yl)pyridin-3-amine] yielded a concentration for half-maximal inhibition (IC50) of 0.35 nM. This molecule yielded a 50% inhibitory concentration (IC50) in assay [1] of 1.35 nM. Moreover, on ERα, the Dmax at 3 µM stood at 107% and the DC50 is 1.04 nM.

(Values after patent publication US12428428B2, “Tricyclic tetrahydroisoquinoline derivative, preparation method therefor and application thereof in medicine” (JIANGSU HENGRUI MEDICINE CO., LTD., priority 2020, dated 2025).)
